We go through eleven molecules from DBAASP.

Among the test systems are Escherichia coli MG1655; Vibrio cholerae; Escherichia coli BL21AI.
What all share (test): ≥ marks a high value that may be exact or a test limit, other limits are often not marked, values filed in µg/mL are converted to µM
For assay [1], the system named is Pseudomonas aeruginosa ATCC 27853.
In assay [2] the test system is Staphylococcus aureus MTCC 9542.
Assay [3] concerns Staphylococcus aureus BCRC 10780.
The test system of assay [4] is Streptococcus pneumoniae BCRC 10794.
For assay [5], the system named is Burkholderia cepacia J2540.
Assay [6] concerns Escherichia coli ATCC 25922.
The test system of assay [7] is Xanthomonas axonopodis pv. glycines ISBF 327.
Assay [8] concerns Bacillus subtilis IFO 3134.
The subject of assay [9] is Escherichia coli IFO 12734.
Assay [10] has as its system Pseudomonas aeruginosa IFO 12582.
The subject of assay [11] is Staphylococcus aureus IFO 12732.
Assay [12] deals with Cronobacter sakazakii DPC 6440.
The test system of assay [13] is Listeria monocytogenes LO28.
Assay [14] relates to Salmonella enterica subsp. enterica serovar Typhi DMST 22842.
Assay [15] has as its system Staphylococcus aureus ATCC 25923.
Assay [16] has as its system Staphylococcus epidermidis ATCC 12228.
The test system of assay [17] is Micrococcus luteus ATCC 10240.

Values after ≈ are worked out from the molar mass of the structure shown. A value given as a limit tells only on which side of the number the result lay.

For the molecule `CC[C@H](C)[C@@H]1NC(=O)[C@H](CCCCN)NC(=O)[C@@H](NC(=O)[C@H](CC(C)C)NC(=O)[C@@H](NC(=O)[C@H](CCC(N)=O)NC(=O)[C@@H]2CCCN2C(=O)[C@H](CC(C)C)NC(=O)[C@H](Cc2ccccc2)NC(=O)[C@H](CC(N)=O)NC(=O)[C@H](C)NC(=O)[C@H](C)NC(=O)[C@H](CC(C)C)NC(=O)CNC(=O)[C@H](C)N)[C@@H](C)CC)CSSC[C@@H](C(N)=O)NC(=O)[C@H](CCCCN)NC(=O)[C@H](CCCN=C(N)N)NC(=O)[C@H](C)NC1=O` [AGLAANFLPQILCKIARKC], the MIC (usually the lowest concentration found to suppress growth) was 24.6 µM (≈ 49.9 µg/mL) against Escherichia coli MG1655, more than 49.2 µM in assay [1], 24.6 µM (≈ 49.9 µg/mL) in [2] and 12.3 µM (≈ 25 µg/mL) in the assay on Vibrio cholerae.

For `CSCC[C@H](NC(=O)[C@H](C)NC(=O)CNC(=O)[C@H](C)NC(=O)[C@H](Cc1cnc[nH]1)NC(=O)[C@H](Cc1ccccc1)NC(C)=O)C(N)=O` [FHAGAM], the MIC in assay [3] and in assay [4] was not below 158 µM throughout.

With `CC[C@H](C)[C@H](NC(=O)CNC(=O)[C@H](CCCN=C(N)N)NC(=O)[C@H](CC(C)C)NC(=O)[C@H](Cc1ccccc1)NC(=O)[C@H](CC(=O)O)NC(=O)[C@H](CCCCN)NC(=O)[C@@H](NC(=O)[C@H](CCCN=C(N)N)NC(=O)[C@H](CCC(N)=O)NC(=O)[C@@H](NC(=O)[C@@H](NC(=O)[C@H](CCCN=C(N)N)NC(=O)[C@H](CCCCN)NC(=O)[C@@H](N)Cc1ccccc1)[C@@H](C)CC)C(C)C)[C@@H](C)CC)C(=O)NCC(=O)N[C@@H](CCCCN)C(=O)N[C@@H](Cc1ccccc1)C(=O)N[C@@H](CC(C)C)C(=O)N[C@@H](Cc1cnc[nH]1)C(=O)N[C@@H](CO)C(=O)N[C@@H](C)C(=O)N[C@@H](CCCCN)C(=O)N[C@@H](CCCCN)C(=O)N[C@@H](Cc1ccccc1)C(=O)O` [FKRIVQRIKDFLRGIGKFLHSAKKF], the MIC in assay [5] worked out at 10.3 µM (≈ 31.3 µg/mL).

As to `CC[C@H](C)[C@H](NC(=O)[C@H](CCCN=C(N)N)NC(=O)[C@H](CCCCN)NC(=O)[C@H](CC(C)C)NC(=O)[C@H](CO)NC(=O)[C@@H](NC(=O)[C@@H](NC(=O)[C@H](CCCCN)NC(=O)[C@@H](NC(=O)CNC(=O)[C@@H](NC(=O)[C@H](CO)NC(=O)[C@H](CC(C)C)NC(=O)[C@H](Cc1ccccc1)NC(=O)[C@H](CCSC)NC(=O)[C@H](CCCCN)NC(=O)[C@H](CCCCN)NC(=O)[C@@H](NC(=O)[C@H](CCC(N)=O)NC(=O)[C@H](Cc1cnc[nH]1)NC(=O)[C@H](Cc1ccccc1)NC(=O)[C@H](CCCCN)NC(=O)CN)[C@@H](C)CC)C(C)C)C(C)C)C(C)C)[C@@H](C)O)C(=O)N[C@@H](CCC(N)=O)C(=O)N[C@@H](Cc1ccccc1)C(=O)NCC(=O)N[C@@H](CC(=O)O)C(=O)N[C@@H](Cc1ccccc1)C(N)=O` [GKFHQIKKMFLSVGVKVTSLKRIQFGDF], the minimal inhibitory concentration (MIC) in assay [6] was 20 µM (≈ 64.8 µg/mL); in [1], 20 µM (≈ 64.8 µg/mL); in assay [7] it was 10 µM (≈ 32.4 µg/mL).

With `CC[C@H](C)[C@H](NC(=O)[C@H](C)NC(=O)[C@@H]1CCCN1C(=O)[C@@H](NC(=O)[C@@H](NC(=O)[C@H](CCCCN)NC(=O)[C@H](C)NC(=O)[C@H](C)NC(=O)[C@@H](NC(=O)[C@H](CCCCN)NC(=O)[C@H](C)NC(=O)[C@H](CC(C)C)NC(=O)[C@@H](NC(=O)CNC(=O)[C@H](Cc1ccccc1)NC(=O)[C@H](CC(C)C)NC(=O)CN)C(C)C)C(C)C)C(C)C)C(C)C)C(=O)N[C@@H](C)C(=O)N[C@@H](CCC(=O)O)C(=O)N[C@@H](Cc1cnc[nH]1)C(=O)N[C@@H](Cc1ccccc1)C(N)=O` [GLFGVLAKVAAKVVPAIAEHF], the minimum inhibitory concentration (MIC) was 8 µM (≈ 17.1 µg/mL) in assay [8], 16 µM (≈ 34.2 µg/mL) in [9], not below 32 µM in assay [10] and 8 µM (≈ 17.1 µg/mL) in [11].

As to `CC[C@H](C)[C@H](NC(=O)[C@H](Cc1c[nH]c2ccccc12)NC(=O)[C@@H]1CCCN1C(=O)[C@H](CCCCN)NC(=O)[C@H](CCSC)NC(=O)[C@H](C)NC(=O)[C@@H](N)CCCCN)C(=O)N[C@@H](CCC(N)=O)C(=O)N1CCC[C@H]1C(=O)N[C@@H](CCCCN)C(=O)N[C@H](C(=O)N[C@@H](CCCCN)C(=O)N[C@H](C(=O)N[C@H](C(=O)N1CCC[C@H]1C(=O)N[C@@H](Cc1ccc(O)cc1)C(=O)N[C@H](C(=O)N[C@@H](CCCN=C(N)N)C(=O)N[C@@H](Cc1ccc(O)cc1)C(=O)N[C@@H](CC(C)C)C(=O)O)C(C)C)[C@@H](C)CC)C(C)C)[C@@H](C)O` [KAMKPWIQPKTKVIPYVRYL], the MIC in [12] and in assay [13] was not below 39.1 µM throughout.

Turning to `CC[C@H](C)[C@H](NC(=O)[C@H](CCSC)NC(=O)[C@H](CCCCN)NC(=O)CNC(=O)[C@H](C)NC(=O)[C@H](Cc1cnc[nH]1)NC(=O)[C@H](Cc1ccccc1)NC(=O)[C@H](CC(C)C)NC(=O)CNC(=O)[C@H](CCCCN)NC(C)=O)C(=O)N[C@@H](Cc1cnc[nH]1)C(N)=O` [KGLFHAGKMIH], the minimal inhibitory concentration (MIC) in [3] and in assay [4] was not below 80.7 µM each time.

Take `CC(C)[C@H](NC(=O)CNC(=O)[C@@H](N)CC(N)=O)C(=O)N[C@@H](CCC(N)=O)C(=O)N1CCC[C@H]1C(=O)N[C@@H](CCCCN)C(=O)N[C@@H](Cc1ccc(O)cc1)C(=O)N[C@@H](CCCCN)C(=O)N[C@@H](Cc1c[nH]c2ccccc12)C(=O)N[C@@H](Cc1c[nH]c2ccccc12)C(=O)N[C@@H](CCCCN)C(=O)N[C@@H](Cc1c[nH]c2ccccc12)C(=O)N[C@@H](Cc1c[nH]c2ccccc12)C(=O)N[C@@H](CCCCN)C(=O)N[C@@H](CCCCN)C(=O)N[C@@H](Cc1c[nH]c2ccccc12)C(=O)N[C@@H](Cc1c[nH]c2ccccc12)C(=O)N[C@@H](Cc1c[nH]c2ccccc12)C(N)=O` [NGVQPKYKWWKWWKKWWW]: the MIC in [6] was 4.2 µM (≈ 11 µg/mL); in assay [14], 8.78 µM (≈ 23 µg/mL); in [15], more than 34.7 µM; in assay [16], 8.78 µM (≈ 23 µg/mL).

For the molecule `CC(C)[C@H](NC(=O)CNC(=O)[C@@H](N)CC(N)=O)C(=O)N[C@@H](CCC(N)=O)C(=O)N1CCC[C@H]1C(=O)N[C@@H](CCCCN)C(=O)N[C@@H](Cc1ccc(O)cc1)C(=O)N[C@@H](CCCN=C(N)N)C(=O)N[C@@H](Cc1c[nH]c2ccccc12)C(=O)N[C@@H](Cc1c[nH]c2ccccc12)C(=O)N[C@@H](CCCN=C(N)N)C(=O)N[C@@H](Cc1c[nH]c2ccccc12)C(=O)N[C@@H](Cc1c[nH]c2ccccc12)C(=O)N[C@@H](CCCN=C(N)N)C(=O)N[C@@H](CCCN=C(N)N)C(=O)N[C@@H](Cc1c[nH]c2ccccc12)C(=O)N[C@@H](Cc1c[nH]c2ccccc12)C(=O)N[C@@H](Cc1c[nH]c2ccccc12)C(=O)O` [NGVQPKYRWWRWWRRWWW], the minimal inhibitory concentration (MIC) was more than 33.3 µM in assay [6], not below 33.3 µM in [14], more than 33.3 µM in assay [15] and 33.3 µM (≈ 91 µg/mL) in assay [16].

Consider `CC[C@H](C)[C@H](NC(=O)[C@H](CCCN=C(N)N)NC(=O)[C@H](CCCN=C(N)N)NC(=O)[C@@H]1CCCN1C(=O)[C@@H]1CCCN1C(=O)[C@H](Cc1cnc[nH]1)NC(=O)[C@@H]1CCCN1C(=O)[C@H](CCCN=C(N)N)NC(=O)[C@@H]1CCCN1C(=O)[C@H](CC(C)C)NC(=O)[C@H](Cc1ccc(O)cc1)NC(=O)[C@@H]1CCCN1C(=O)[C@@H]1CCCN1C(=O)[C@H](CCCCN)NC(=O)[C@H](CC(=O)O)NC(=O)[C@@H](N)C(C)C)C(=O)N[C@@H](Cc1ccc(O)cc1)C(=O)N[C@@H](CC(N)=O)C(=O)N[C@@H](CC(N)=O)C(=O)N[C@@H](CCCN=C(N)N)C(=O)O` [VDKPPYLPRPHPPRRIYNNR], for which the MIC amounted to 25.7 µM (≈ 64 µg/mL) in the assay on Escherichia coli BL21AI and 12.9 µM (≈ 32 µg/mL) in assay [17].

Regarding `CC[C@H](C)[C@H](NC(=O)[C@H](Cc1c[nH]c2ccccc12)NC(=O)[C@@H]1CCCN1C(=O)[C@H](CCCCN)NC(=O)[C@H](CCSC)NC(=O)[C@H](C)NC(=O)[C@H](CCCCN)NC(=O)[C@H](CCC(N)=O)NC(=O)[C@H](Cc1cnc[nH]1)NC(=O)[C@H](CCC(N)=O)NC(=O)[C@H](Cc1ccc(O)cc1)NC(=O)[C@@H](N)C(C)C)C(=O)N[C@@H](CCC(N)=O)C(=O)N1CCC[C@H]1C(=O)N[C@@H](CCCCN)C(=O)N[C@H](C(=O)N[C@@H](CCCCN)C(=O)N[C@H](C(=O)N[C@H](C(=O)N1CCC[C@H]1C(=O)N[C@@H](Cc1ccc(O)cc1)C(=O)N[C@H](C(=O)N[C@@H](CCCN=C(N)N)C(=O)N[C@@H](Cc1ccc(O)cc1)C(=O)N[C@@H](CC(C)C)C(=O)O)C(C)C)[C@@H](C)CC)C(C)C)[C@@H](C)O` [VYQHQKAMKPWIQPKTKVIPYVRYL], the MIC was not below 312 µM in assay [12] and not below 78.1 µM in [13].
